For one data set, the target named is T1, UGT2B17 (Homo sapiens, UniProt O75795).
T1 sequence (O75795 24-530): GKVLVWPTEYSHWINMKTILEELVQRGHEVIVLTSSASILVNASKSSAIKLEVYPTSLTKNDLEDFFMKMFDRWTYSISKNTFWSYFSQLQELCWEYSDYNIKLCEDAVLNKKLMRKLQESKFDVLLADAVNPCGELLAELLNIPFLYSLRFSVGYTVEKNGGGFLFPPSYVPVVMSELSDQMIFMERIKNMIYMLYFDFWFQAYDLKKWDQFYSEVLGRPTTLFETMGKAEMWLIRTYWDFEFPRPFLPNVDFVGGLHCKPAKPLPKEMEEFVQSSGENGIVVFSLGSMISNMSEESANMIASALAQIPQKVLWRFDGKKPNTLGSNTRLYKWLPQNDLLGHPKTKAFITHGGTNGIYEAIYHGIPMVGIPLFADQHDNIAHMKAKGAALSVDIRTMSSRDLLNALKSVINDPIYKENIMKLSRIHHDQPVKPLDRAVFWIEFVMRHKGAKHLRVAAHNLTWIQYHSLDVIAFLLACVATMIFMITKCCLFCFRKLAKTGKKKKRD
Nature of the data set: Inhibition of 4-MU glucuronidation by recombinant UGT2B17. The following applies: recombinant UGT2B17, pH 7.4, probe 4-MU.

The target in the next data set is T2, UGT2B4 (Homo sapiens, UniProt P06133).
T2 construct: purchased BD Gentest (Woburn, MA); host or cells: baculovirus-infected insect cells
T2 sequence (P06133 24-528): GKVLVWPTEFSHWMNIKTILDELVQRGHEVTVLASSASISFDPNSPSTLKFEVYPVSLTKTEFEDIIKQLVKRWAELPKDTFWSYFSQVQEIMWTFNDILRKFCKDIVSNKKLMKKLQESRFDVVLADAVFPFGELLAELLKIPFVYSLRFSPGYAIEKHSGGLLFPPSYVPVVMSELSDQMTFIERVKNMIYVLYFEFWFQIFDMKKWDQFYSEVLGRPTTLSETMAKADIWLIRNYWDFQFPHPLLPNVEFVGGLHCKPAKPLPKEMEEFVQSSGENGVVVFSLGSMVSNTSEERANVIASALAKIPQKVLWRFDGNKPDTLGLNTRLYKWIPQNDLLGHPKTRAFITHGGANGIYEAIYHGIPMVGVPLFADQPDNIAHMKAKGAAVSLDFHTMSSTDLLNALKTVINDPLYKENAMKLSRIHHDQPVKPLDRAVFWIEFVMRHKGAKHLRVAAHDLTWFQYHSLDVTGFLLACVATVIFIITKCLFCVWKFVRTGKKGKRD
Briefly: Inhibition of 4-MU glucuronidation by recombinant UGT2B4. In kind it is in vitro ADME. Conditions: recombinant UGT2B4, pH 7.4, probe 4-MU, 100 μM inhibitor, 4-MU substrate, read-out: Remaining activities (%) of UGT2B4.

The target of the next data set is T3, UGT2B7 (Homo sapiens, UniProt P16662).
T3 sequence (P16662 24-529): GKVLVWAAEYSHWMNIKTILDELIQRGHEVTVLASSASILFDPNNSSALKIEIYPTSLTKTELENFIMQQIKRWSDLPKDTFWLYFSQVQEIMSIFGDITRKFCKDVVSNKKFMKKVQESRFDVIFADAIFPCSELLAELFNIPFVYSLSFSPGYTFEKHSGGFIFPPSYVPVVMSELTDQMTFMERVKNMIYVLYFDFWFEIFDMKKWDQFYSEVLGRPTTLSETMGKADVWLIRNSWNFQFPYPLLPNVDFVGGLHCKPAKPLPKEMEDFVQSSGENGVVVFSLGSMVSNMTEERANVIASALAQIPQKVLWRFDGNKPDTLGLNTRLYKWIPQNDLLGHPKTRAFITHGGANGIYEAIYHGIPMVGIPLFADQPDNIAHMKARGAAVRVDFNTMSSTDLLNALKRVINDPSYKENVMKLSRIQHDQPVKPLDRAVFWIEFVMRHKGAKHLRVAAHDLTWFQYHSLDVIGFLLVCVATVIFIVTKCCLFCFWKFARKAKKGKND
Briefly: Inhibition of 4-MU glucuronidation by recombinant UGT2B7. Conditions: recombinant UGT2B7, pH 7.4, probe 4-MU.

In a further data set the target is T4, UGT1A8 (Homo sapiens, UniProt Q9HAW9).
T4 sequence (Q9HAW9 26-530): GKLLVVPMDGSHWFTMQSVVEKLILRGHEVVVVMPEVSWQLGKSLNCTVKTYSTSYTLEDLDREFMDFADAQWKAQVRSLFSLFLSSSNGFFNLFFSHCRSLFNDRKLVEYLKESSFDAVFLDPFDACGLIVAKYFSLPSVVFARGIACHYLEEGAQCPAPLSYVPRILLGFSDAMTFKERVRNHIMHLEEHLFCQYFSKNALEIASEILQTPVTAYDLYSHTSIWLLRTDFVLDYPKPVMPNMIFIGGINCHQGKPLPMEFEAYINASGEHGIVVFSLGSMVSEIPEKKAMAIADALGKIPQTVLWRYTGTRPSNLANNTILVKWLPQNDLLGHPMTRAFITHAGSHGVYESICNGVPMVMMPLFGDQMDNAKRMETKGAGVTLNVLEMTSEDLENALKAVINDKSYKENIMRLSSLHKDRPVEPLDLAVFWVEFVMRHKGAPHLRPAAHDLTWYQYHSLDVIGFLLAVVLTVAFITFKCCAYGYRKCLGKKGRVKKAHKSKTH
Nature of the data set: Inhibition of 4-MU glucuronidation by recombinant UGT1A8. The following applies: recombinant UGT1A8, pH 7.4, probe 4-MU.

In a further data set the target is T5, UGT1A9 (Homo sapiens, UniProt O60656).
T5 sequence (O60656 26-530): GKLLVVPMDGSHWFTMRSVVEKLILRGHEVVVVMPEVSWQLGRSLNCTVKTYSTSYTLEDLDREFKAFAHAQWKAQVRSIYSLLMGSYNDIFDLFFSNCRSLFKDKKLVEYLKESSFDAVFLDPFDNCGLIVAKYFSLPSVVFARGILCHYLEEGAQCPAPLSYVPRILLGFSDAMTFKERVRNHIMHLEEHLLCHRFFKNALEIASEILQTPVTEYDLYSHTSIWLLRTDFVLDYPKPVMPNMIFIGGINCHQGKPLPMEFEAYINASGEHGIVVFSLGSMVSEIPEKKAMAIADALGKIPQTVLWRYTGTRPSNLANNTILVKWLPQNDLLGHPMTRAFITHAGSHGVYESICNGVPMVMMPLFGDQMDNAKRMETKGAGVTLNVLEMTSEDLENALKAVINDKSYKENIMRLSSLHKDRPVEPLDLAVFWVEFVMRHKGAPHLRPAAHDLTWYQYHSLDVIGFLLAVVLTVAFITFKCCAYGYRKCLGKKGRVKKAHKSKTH
Briefly: in vitro. Conditions: recombinant UGT1A9, pH 7.4, probe 4-MU.

Data set [1] can be described thus: Estimation of in vivo TKI concentrations after repeated oral administration. Also noted: species or system human. The following applies: calculated from literature PK parameters.

Consider `CNC(=O)c1ccccc1Sc1ccc2c(/C=C/c3ccccn3)n[nH]c2c1` [Axitinib, axitinib], for which the activity at 120 min, 100 µM on UGT2B17 came to 55.9 ± 0.3%; on UGT2B4 it was 42.1 ± 1.6%; on UGT2B7, 55.9 ± 9.7%. For the same molecule, the figures for the activity at 30 min, 100 µM on UGT1A8 and on UGT1A9 were 54.6 ± 2.4% and 44.8 ± 0.2%, respectively. Besides, in data set [1], the “Calculated Concentrations Iav (average systemic plasma concentration)” value (from here on “Calculated Concentrations Iav”) was 0.024 µM. The “Calculated Concentrations Iin,u (maximum unbound hepatic input concentration)” value in data set [1] is 0.00086 µM. The “Calculated Concentrations Imax,u (maximum unbound systemic plasma concentration)” value in data set [1] is 0.00067 µM.

For the molecule `CS(=O)(=O)CCNCc1ccc(-c2ccc3ncnc(Nc4ccc(OCc5cccc(F)c5)c(Cl)c4)c3c2)o1` [Lapatinib, lapatinib], the values for the activity at 120 min, 100 µM at UGT2B17, on UGT2B4 and at UGT2B7 were 94.8 ± 5.7%, 105.1 ± 0.2% and 90.5 ± 1%, respectively. The activity at 30 min, 100 µM turned out to be 73.5 ± 10.6% on UGT1A8 and 51.1 ± 7.9% at UGT1A9. The “Calculated Concentrations Iav” value in data set [1] was 0.79 µM. Also, the “Calculated Concentrations Iin,u (maximum unbound hepatic input concentration)” value in data set [1] is 0.12 µM. For the same molecule, in data set [1], the “Calculated Concentrations Imax,u (maximum unbound systemic plasma concentration)” value is 0.011 µM.

Regarding `COc1cc2c(Nc3ccc(Br)cc3F)ncnc2cc1OCC1CCN(C)CC1` [Vandetanib, vandetanib], the activity at 120 min, 100 µM on UGT2B17 was found to be 69.7 ± 3.1%; on UGT2B4 it was 80.8 ± 6.6%; on UGT2B7, 49.8 ± 3.7%. Besides, the activity at 30 min, 100 µM was 56 ± 6.3% on UGT1A8 and 14.1 ± 4.7% on UGT1A9. Besides, the “Calculated Concentrations Iav” value in data set [1] is 1.99 µM. Also, the “Calculated Concentrations Iin,u (maximum unbound hepatic input concentration)” value in data set [1] is 0.23 µM. In data set [1], the “Calculated Concentrations Imax,u (maximum unbound systemic plasma concentration)” value was 0.12 µM.

Source of the values: publication PMC4672351, “Drug-Drug Interaction Potentials of Tyrosine Kinase Inhibitors via Inhibition of UDP-Glucuronosyltransferases” (Scientific Reports, 2015).
